Data on 17 compounds can be found in ChEMBL document CHEMBL2396595, “New eudesmane sesquiterpenes from Alpinia oxyphylla and determination of their inhibitory effects on microglia” (Bioorg Med Chem Lett, 2013).

Activity calls are given as the source filed them. The rule behind the calls is not given here.

Series [1] concerns BV-2. The series can be described thus: Neuroprotective activity in mouse BV2 cells assessed as inhibition of LPS-induced nitric oxide production at maximum non-toxic concentration treated 1 hr before LPS addition measured after 24 hrs by colorimetric analysis. It is filed as functional, cell-based.
Series [2] concerns BV-2. The series can be described thus: Neuroprotective activity in mouse BV2 cells assessed as increase of LPS-induced TNFalpha production at maximum non-toxic concentration treated 1 hr before LPS addition measured after 24 hrs by ELISA. The class given is functional, cell-based. On the technique in general: ELISA stands for enzyme-linked immunosorbent assay.
Series [3] is described as follows: Cytotoxicity against mouse BV2 cells assessed as maximum non-toxic concentration after 24 hrs by MTT assay. The class given is cell-based, BV-2. (Tetrazolium assays rely on reduction of a dye to a coloured formazan, in cell work by metabolically active cells.)
In series [4] the test system is BV-2. In words: Neuroprotective activity in mouse BV2 cells assessed as increase of LPS-induced nitric oxide production at maximum non-toxic concentration treated 1 hr before LPS addition measured after 24 hrs by colorimetric analysis. It is filed as functional, cell-based.
For series [5], the system named is BV-2. In words: Neuroprotective activity in mouse BV2 cells assessed as inhibition of LPS-induced TNFalpha production at maximum non-toxic concentration treated 1 hr before LPS addition measured after 24 hrs by ELISA. The class given is functional, cell-based.

For `C=C(C)[C@]1(O)CC[C@]2(C)CC(=O)C=C(C)[C@H]2C1`, in the series with BV-2 [1], the inhibition entry was “inactive”. The outcome in the series on BV-2 [2] was Active. For the same compound, in series [3], the MNTC at 24 h is 0.1 µM.
Consider `CC(=O)[C@H]1CC[C@@]2(C)CC(=O)C=C(C)[C@@]2(O)C1`, for which, in the series with BV-2 [4], the result was Active. Besides, in the series on BV-2 [1], the inhibition result was “inactive”. Also, the MNTC at 24 h in series [3] is 100 µM.
On the same counts, the results for `CC(=O)C1=CC2=C(C)C(=O)CC[C@@]2(C)CC1` are “Active”, “inactive” and 100 µM.
The corresponding values for `CC1=CC(=O)C[C@@]2(C)C[C@H]3OC(=O)C(C)=C3C[C@H]12` are “Active”, “inactive” and 100 µM.
Take `C=C(C)[C@@H]1CC(=O)C2=CC(=O)C[C@@H](C)[C@]2(C)C1`: in the series on BV-2 [1], the inhibition entry was “Active”. In the series with BV-2 [2], the result was Active. In addition, in series [3], the MNTC at 24 h turned out to be 0.1 µM.
With `Cc1ccc2c(c1O)[C@H](C(C)C)CCC2=O`, the inhibition result with BV-2 [1] is “Active”. For the same compound, the MNTC at 24 h in series [3] was determined as 100 µM.
With `Cc1ccc2c(c1)[C@H](C(C)C)CCC2=O` [(4S)-10-NOR-CALAMENEN-10-ONE], the outcome with BV-2 [4] was Active. In addition, the inhibition entry with BV-2 [1] was “inactive”. The MNTC at 24 h in series [3] is 0.1 µM.
`C[C@@H]1CC(=O)C=C2CC[C@@H]([C@](C)(O)CO)C[C@]21C` [(11S)-NOOTKATONE-11,12-DIOL]: the inhibition result with BV-2 [1] was “inactive”. Besides, the MNTC at 24 h in series [3] was 30 µM.
The corresponding values for `C=C(C)[C@@H]1CCC2=C[C@@H](O)C[C@@H](C)[C@]2(C)C1` [BETA-NOOTKATOL] are “Active” and 30 µM.
On to `COc1ccc2c(c1)c(CC(=O)O)c(C)n2C(=O)c1ccc(Cl)cc1` [INDOMETHACIN], for which the MNTC at 24 h in series [3] turned out to be 10 µM.
For `C=C(C)[C@@H]1CCC2=CC(=O)C[C@@H](C)[C@]2(C)C1` [NOOTKATONE], the inhibition result with BV-2 [1] was “inactive”. Besides, the outcome with BV-2 [2] was Active. Moreover, the MNTC at 24 h in series [3] was determined as 0.1 µM.
As for `CC1=C2C=C(C(C)(O)CO)CC[C@]2(C)CCC1=O` (stereo not given in full) [OXYPHYLLANENE F], the inhibition result in the series with BV-2 [1] was “inactive”. The MNTC at 24 h in series [3] is 0.1 µM.
As to `CC(C)[C@@H]1CCC(=O)C2=C1[C@H](O)[C@](C)(O)CC2` [OXYPHYLLENODIOL A], the inhibition result in the series on BV-2 [1] was “inactive”. Further, the MNTC at 24 h in series [3] stood at 100 µM.
Regarding `CC(C)[C@H]1CCC(=O)C2=C1[C@H](O)[C@](C)(O)CC2` [OXYPHYLLENODIOL B], the inhibition result with BV-2 [1] was “Active”. Also, in series [3], the MNTC at 24 h came out at 1 µM.
In the case of `C[C@@]12CCC(=O)C=C1[C@@](C)(O)[C@H](O)CC2` [OXYPHYLLENONE A], in the series with BV-2 [1], the inhibition entry was “inactive”. Moreover, the inhibition entry in the series on BV-2 [5] is “Active”. The MNTC at 24 h in series [3] was found to be 100 µM.
As for `C[C@@]12CCC(=O)C=C1[C@](C)(O)[C@H](O)CC2` [OXYPHYLLENONE B], the inhibition entry with BV-2 [1] is “inactive”. Besides, the MNTC at 24 h in series [3] amounted to 10 µM.
As to `N=C(N)NN` [PIMAGEDINE], the MNTC at 24 h in series [3] was found to be 1000 µM.
